Assay results taken from patent US6544561B2 (The Lachlan Family Pty Ltd., priority 1997, dated 2003).

Experiments:
[1] = system: outbred (Swiss) female mice; conditions: drinking water with Mg2+ 120 mg per liter from weaning, fed on alternate days
Procedure: A short-lived mammalian species was chosen. […] Two hundred outbred (Swiss) female mice were divided randomly at weaning into two groups of 100 mice and were maintained under identical management and environmental conditions.
The second group of mice was supplied with drinking water that contained magnesium sulphate (Epsom salts) 1 gram per liter with a pH value between pH 6.5 and pH 7.0. This drinking water contained approximately Mg^2+ 120mg per liter. Bicarbonate anions were absent.
Both groups of mice were fed commercial laboratory food that contained 1 gram of magnesium per kilogram of food. Both groups of mice were fed on alternate days with no food available on the other days. Group-specific drinking water (as described above) was available at all times.

[2] = system: post menopausal women with osteoarthritis in the joints of their hands; conditions: in vivo
Description: For an experimental trial, a group of post menopausal women were chosen who had clinical signs of osteoarthritis in the joints of their hands. The osteoarthritic joints included the distal and proximal interphalangeal joints of the fingers and the carpometacarpal joint of the thumbs. In all cases, loss of joint function was moderate to severe.
In all cases, the women suffered pain, swelling of the fingers and loss of joint movement. […] Women with affected thumbs had considerable loss of function and considerable pain. […] The women consumed between 2 to 3 liters of bicarbonate solution per day. […] Consumption was commenced at half a liter per day and increased by increments over a period of one month to 2 to 3 liters per day. Consumption occurred on an empty stomach to avoid the loss of bicarbonate by stomach acid. Consumption occurred in small amounts (300 mL) at set times each day to avoid rapid increases in bicarbonate concentrations of body fluids.

[3] = with lowered body weight; text refers to the trial of Example 5
Procedure: A trial involving people consuming bicarbonate anions in water was conducted. These people were middle aged and overweight and complained of tiredness and lethargy. No control group was maintained for the duration of the trial (people in an initial control group were unable to consume the volumes of soft water required). […] They were requested to decrease their food (calorie) intake considerably and to avoid dietary fats.
Bicarbonate concentration was established at a maximum of one gram per liter.
Each participant in the trial was advised to consume the bicarbonate solution ‘on an empty stomach’. […] Advice was given also to consume the solution in small amounts at set times each day. Consumption in this manner avoided a rapid increase in the bicarbonate concentrations of body fluids.

Row | Molecule | Fifty Percent Survival [1] | Maximum Life Span [1] | Pain and swelling associated with osteoarthritis [2] | Blood pressure [3]
1 | O=S(=O)([O-])[O-].[Mg+2] [magnesium sulphate, reference compound] | 736 days | 1040 days |  | 
2 | magnesium bicarbonate | 790 days | 1152 days | alleviated the pain and swelling associated with osteoarthritis | reduction in high blood pressure to a normal value
